Assay results reported in patent US6703347B2, “Isothiazole derivatives and their use as pesticides” (Syngenta Limited, priority 2000, dated 2004).

How the values were obtained:
[1] = test system: peach potato aphids (Myzus persicae); settings: 500 ppm by weight; infested Chinese cabbage leaves sprayed; mortality assessed after three days
[2] = test system: fruit flies (Drosophila melanogaster); test: pesticidal test against fruit flies; settings: liquid composition containing 500 ppm by weight of compound
Description: (§1) The activities of individual compounds of formula (I) were determined using a variety of pests. The pests were treated with a liquid composition containing 500 parts per million (ppm) by weight of a compound of formula (I). Each composition was made by dissolving the compound in an acetone and ethanol (50:50 by volume) mixture and diluting the solution with water containing 0.05% by volume of a wetting agent, SYNPERONIC NP8, until the liquid composition contained the required concentration of the compound.
(§2) The test procedure adopted with regard to each pest was essentially the same and comprised supporting a number of the pests on a medium, which was usually a substrate, a host plant or a foodstuff on which the pests feed, and treating either or both the medium and the pests with a composition. Pest mortality was assessed usually between two and five days after treatment.
(§3) Similar tests were conducted against, independently, two-spotted spider mites (Tetranychus urticae), fruit flies (Drosophila melanogaster), tobacco budworms (Heliothis virescens), diamond back moth (Plutella xylostella) and corn root worm (Diabrotica balteata).

[3] = test system: corn root worm (Diabrotica balteata); test: pesticidal test against corn root worm; settings: liquid composition containing 500 ppm by weight of compound
[4] = test system: diamond back moth (Plutella xylostella); test: pesticidal test against diamond back moth; settings: liquid composition containing 500 ppm by weight of compound
Description: as §1, §2, §3

[5] = test system: tobacco budworms (Heliothis virescens); test: pesticidal test against tobacco budworms; settings: liquid composition containing 500 ppm by weight of compound
Description: as §1, §2, §3

| Compound | mortality (score) Mp [1] | mortality (score) Dm [2] | mortality (score) Db [3] | mortality (score) Px [4] | mortality (score) Hv [5] |
| --- | --- | --- | --- | --- | --- |
| CCc1nsc(NC(=O)C(C)c2ccc3oc(CC(C)(C)C)nc3c2)c1Cl (stereo not drawn) [Table 1 Compound 87] | 9 (9 indicates 80-100% mortality) | 9 (9 indicates 80-100% mortality) | 9 (9 indicates 80-100% mortality) | 9 (9 indicates 80-100% mortality) | – |
| Cc1nsc(NC(=O)C(F)c2ccc3oc(C(F)(F)C(F)(F)C(F)(F)F)nc3c2)c1Cl (stereo not drawn) [Table 5 Compound 10] | 9 (9 indicates 80-100% mortality) | 9 (9 indicates 80-100% mortality) | 9 (9 indicates 80-100% mortality) | 9 (9 indicates 80-100% mortality) | 9 (9 indicates 80-100% mortality) |
| Cc1nsc(NC(=O)C(F)c2ccc3sc(CC(C)(C)C)nc3c2)c1Cl (stereo not drawn) [Table 42 Compound 7] | 9 (9 indicates 80-100% mortality) | 9 (9 indicates 80-100% mortality) | 9 (9 indicates 80-100% mortality) | 5 (5 indicates 40-79% mortality) | 9 (9 indicates 80-100% mortality) |
| CCC(C(=O)Nc1snc(C)c1Cl)c1ccc2oc(C(F)(F)C(F)(F)C(F)(F)F)nc2c1 (stereo not drawn) [Table 2 Compound 10] | 5 (5 indicates 40-79% mortality) | 0 (represents less than 40% mortality) | 9 (9 indicates 80-100% mortality) | – | 9 (9 indicates 80-100% mortality) |
| CCOCN(C(=O)C(C)c1ccc2sc(CC(C)C)nc2c1)c1snc(CC)c1Cl (stereo not drawn) [Table 39 Compound 156] | 9 (9 indicates 80-100% mortality) | 0 (represents less than 40% mortality) | – | 9 (9 indicates 80-100% mortality) | 9 (9 indicates 80-100% mortality) |
| CCOCN(C(=O)C(C)c1ccc2oc(CC(C)(C)C)nc2c1)c1snc(C)c1Cl (stereo not drawn) [Table 1 Compound 77] | 9 (9 indicates 80-100% mortality) | 0 (represents less than 40% mortality) | 9 (9 indicates 80-100% mortality) | 9 (9 indicates 80-100% mortality) | 9 (9 indicates 80-100% mortality) |
| Cc1nsc(NC(=O)C(F)c2ccc3oc(CC(C)C)nc3c2)c1Cl (stereo not drawn) [Table 5 Compound 6] | 9 (9 indicates 80-100% mortality) | 9 (9 indicates 80-100% mortality) | 9 (9 indicates 80-100% mortality) | 9 (9 indicates 80-100% mortality) | – |
| CCc1nsc(NC(=O)C(C)c2ccc3oc(CC(F)(F)F)nc3c2)c1Cl (stereo not drawn) [Table 1 Compound 88] | 9 (9 indicates 80-100% mortality) | 0 (represents less than 40% mortality) | 9 (9 indicates 80-100% mortality) | 9 (9 indicates 80-100% mortality) | – |
| CCc1nsc(NC(=O)C(CC)c2ccc3oc(C(F)(F)C(F)(F)C(F)(F)F)nc3c2)c1Cl (stereo not drawn) [Table 2 Compound 90] | 0 (represents less than 40% mortality) | 0 (represents less than 40% mortality) | 0 (represents less than 40% mortality) | – | 9 (9 indicates 80-100% mortality) |
| CCc1nsc(NC(=O)C(F)c2ccc3sc(CC(C)(C)C)nc3c2)c1Cl (stereo not drawn) [Table 42 Compound 87] | 9 (9 indicates 80-100% mortality) | 9 (9 indicates 80-100% mortality) | 9 (9 indicates 80-100% mortality) | 9 (9 indicates 80-100% mortality) | 9 (9 indicates 80-100% mortality) |
| CCOCN(C(=O)C(C)c1ccc2oc(C(F)(F)C(F)(F)F)nc2c1)c1snc(CC)c1Cl (stereo not drawn) [Table 1 Compound 159] | 9 (9 indicates 80-100% mortality) | 9 (9 indicates 80-100% mortality) | 9 (9 indicates 80-100% mortality) | 9 (9 indicates 80-100% mortality) | – |
| CCc1nsc(NC(=O)C(C)c2ccc3oc(CC(C)C)nc3c2)c1Cl (stereo not drawn) [Table 1 Compound 86] | 9 (9 indicates 80-100% mortality) | 9 (9 indicates 80-100% mortality) | 9 (9 indicates 80-100% mortality) | 9 (9 indicates 80-100% mortality) | – |
| CCOCN(C(=O)C(C)c1ccc2oc(CC(F)(F)F)nc2c1)c1snc(C)c1Cl (stereo not drawn) [Table 1 Compound 78] | 9 (9 indicates 80-100% mortality) | 9 (9 indicates 80-100% mortality) | 9 (9 indicates 80-100% mortality) | 9 (9 indicates 80-100% mortality) | 9 (9 indicates 80-100% mortality) |
| CCc1nsc(NC(=O)C(F)c2ccc3oc(CC(C)C)nc3c2)c1Cl (stereo not drawn) [Table 5 Compound 86] | 9 (9 indicates 80-100% mortality) | 9 (9 indicates 80-100% mortality) | – | 9 (9 indicates 80-100% mortality) | 9 (9 indicates 80-100% mortality) |
| CCOCN(C(=O)C(C)c1ccc2oc(CC(C)C)nc2c1)c1snc(CC)c1Cl (stereo not drawn) [Table 1 Compound 156] | 9 (9 indicates 80-100% mortality) | – | – | – | – |
| CCOCN(C(=O)C(C)c1ccc2oc(C(F)(F)C(F)(F)C(F)(F)F)nc2c1)c1snc(C)c1Cl (stereo not drawn) [Table 1 Compound 80] | 5 (5 indicates 40-79% mortality) | 0 (represents less than 40% mortality) | 9 (9 indicates 80-100% mortality) | 9 (9 indicates 80-100% mortality) | 9 (9 indicates 80-100% mortality) |
| CCc1nsc(NC(=O)C(C)c2ccc3oc(C)nc3c2)c1Cl (stereo not drawn) [Table 1 Compound 81] | 9 (9 indicates 80-100% mortality) | 9 (9 indicates 80-100% mortality) | 9 (9 indicates 80-100% mortality) | 9 (9 indicates 80-100% mortality) | – |
| Cc1nsc(NC(=O)C(C)c2ccc3oc(CC(C)C)nc3c2)c1Cl (stereo not drawn) [Table 1 Compound 6] | 0 (represents less than 40% mortality) | 0 (represents less than 40% mortality) | 9 (9 indicates 80-100% mortality) | 9 (9 indicates 80-100% mortality) | – |
| CCc1nsc(NC(=O)C(C)c2ccc3oc(C(F)(F)C(F)(F)C(F)(F)F)nc3c2)c1Cl (stereo not drawn) [Table 1 Compound 90] | 0 (represents less than 40% mortality) | 0 (represents less than 40% mortality) | 9 (9 indicates 80-100% mortality) | 9 (9 indicates 80-100% mortality) | – |
| CCOCN(C(=O)C(F)c1ccc2oc(C(F)(F)C(F)(F)C(F)(F)F)nc2c1)c1snc(CC)c1Cl (stereo not drawn) [Table 5 Compound 160] | 9 (9 indicates 80-100% mortality) | 0 (represents less than 40% mortality) | 9 (9 indicates 80-100% mortality) | 9 (9 indicates 80-100% mortality) | – |
| CCc1nsc(NC(=O)C(F)c2ccc3oc(CC(C)(C)C)nc3c2)c1Cl (stereo not drawn) [Table 5 Compound 87] | 9 (9 indicates 80-100% mortality) | 9 (9 indicates 80-100% mortality) | – | 9 (9 indicates 80-100% mortality) | 9 (9 indicates 80-100% mortality) |
| CCOCN(C(=O)CCc1ccc2oc(CC(C)(C)C)nc2c1)c1snc(C)c1Cl [Table 82 Compound 77] | 9 (9 indicates 80-100% mortality) | 0 (represents less than 40% mortality) | – | 0 (represents less than 40% mortality) | 0 (represents less than 40% mortality) |
| CCc1nsc(NC(=O)C(F)c2ccc3oc(C(F)(F)C(F)(F)C(F)(F)F)nc3c2)c1Cl (stereo not drawn) [Table 5 Compound 90] | 9 (9 indicates 80-100% mortality) | 9 (9 indicates 80-100% mortality) | 9 (9 indicates 80-100% mortality) | 9 (9 indicates 80-100% mortality) | – |
| CCOCN(C(=O)C(C)c1ccc2oc(C(F)(F)C(F)(F)C(F)(F)F)nc2c1)c1snc(CC)c1Cl (stereo not drawn) [Table 1 Compound 160] | 9 (9 indicates 80-100% mortality) | 9 (9 indicates 80-100% mortality) | 9 (9 indicates 80-100% mortality) | 9 (9 indicates 80-100% mortality) | – |
